The values that follow come from US11365192B2, “Pyridine compound substituted with azole” (TAISHO PHARMACEUTICAL CO., LTD., priority 2017, dated 2022).

Data set [1] addresses 20-HETE producing enzymes, human kidney microsome. The data set can be described thus: Inhibition test against 20-HETE producing enzymes using human kidney microsomes (LC-MS/MS). The format is biochemical. Conditions: for IC50: human kidney microsome 250 μg/mL protein, 20 μM arachidonic acid, 37° C. 45 minutes, LC-MS/MS. The method, then:
(1) Inhibition Test for Each Compound of the Present Invention Against 20-HETE Producing Enzymes Using Human Kidney Microsomes
The reaction solution containing each compound [final concentration of 100 mM, KPO4 (pH 7.4), 20 μM Arachidonic acid, 4 mM NADPH] was added to the human kidney microsome (250 μg/mL protein). Following this, the microsome was left to stand at 37° C. for 45 minutes to perform 20-HETE producing reaction. After adding formic acid to stop the reaction, 9 times amount of acetonitrile was added, and deproteinization was carried out by centrifugation (1000 rpm, 4° C., 10 minutes). After that, the peak area value of 20-HETE was measured using a liquid chromatograph-tandem mass spectrometer (LC-MS/MS), and by using that value, the percent inhibition of 20-HETE producing enzyme (%) was calculated according to the equation described below, and the 50% inhibitory concentration (IC50 value) for each compound was calculated. Percent inhibition of 20-HETE producing enzyme (%)=[1−(A−B)/(C−B)]*100
A: Peak area value of 20-HETE/peak area value of internal standard substance with addition of compound
B: Peak area value of 20-HETE/peak area value of internal standard substance without addition of compound and NADPH
C: Peak area value of 20-HETE/peak area value of internal standard substance without addition of compound
(3) Inhibition Test for Compound a and Compound B Disclosed in WO03/022821 Against 20-HETE Producing Enzymes Using Human Kidney Microsomes
For compound A and compound B disclosed in WO03/022821, which have been described above, the 50% inhibitory concentration (IC50 value) against 20-HETE producing enzymes was calculated according to the method described in Test Example 2.
On the other hand, as described above, in Test Example 2, nonradioactive arachidonic acid was used as a substrate for 20-HETE producing reaction, and the amount of 20-HETE produced was measured using LC-MS/MS. In this case, the concentration of arachidonic acid, the substrate, is 20 μM.
In recent years, it is recommended that the substrate concentration for calculating the IC50 value be set at the Km value (Assay Guidance Manual, Sittampalam et. al. (URL: http://www.ncbi.nlm.nih.gov/books/NBK53196/)). According to this, in Test Example 2 described above, human kidney microsomes were used to calculate the Km value, and the calculated Km value of 20 μM was set as the concentration of the substrate, arachidonic acid.

In a further data set the target is human CYP4V2 (Homo sapiens (Human), UniProt Q6ZWL3). In words: CYP4V2 selectivity test. The format is biochemical. Conditions: cell membrane fraction expressing human CYP4V2, 7 μM luciferine derivative, 40 minutes. The protocol:
(3) CYP4V2 Selectivity Test for Each Compound of the Present Invention
(§1) The reaction solution containing each compound [final concentration of 100 mM KPO4 (pH 7.4), 7 μM luciferine derivative, and 1 mM NADPH] was added to a cell membrane fraction (38 μg/mL protein) in which human CYP4V2 had been expressed. Following this, the cell membrane fraction was left to stand at room temperature for 40 minutes to perform an enzymatic reaction. After the reaction, a luciferine detection reagent was added, and the luminescence value was measured using a plate reader. By using that value, the percent inhibition of the enzymatic reaction of CYP4V2(%) was calculated according to the equation described below, and the 50% inhibitory concentration (IC50 value) for each compound was calculated. Percent inhibition of CYP4V2 enzyme (%)=[1−(A−B)/(C−B)]*100
(§2) A: Luminescence value with addition of compound
(§3) B: Luminescence value without addition of compound and enzyme
(§4) C: Luminescence value without addition of compound

The target in another data set is human CYP4F22 (Homo sapiens (Human), UniProt Q6NT55). In words: CYP4F22 selectivity test. The settings on record: cell membrane fraction expressing human CYP4F22, 14 μM luciferine derivative, 50 minutes. The format is biochemical. The protocol:
(1) CYP4F22 Selectivity Test for Each Compound of the Present Invention
as §1, with “7.4), 14” for “7.4), 7”, “fraction (30” for “fraction (38”, “human CYP4F22” for “human CYP4V2”, “for 50” for “for 40”, “of CYP4F22(%)” for “of CYP4V2(%)”, “of CYP4F22” for “of CYP4V2”
as §2, §3, §4

A short description of data set [2]: Evaluation test for in vivo stability (half-life in plasma after intravenous administration to rats). The settings on record: rats (SD, male), 0.5 mg/kg, half-life in plasma from CL and Vdss. The arrangement: species or system rats (Sprague-Dawley). The method, then:
(1) Evaluation Test for In Vivo Stability of Each Compound of the Present Invention
Each compound was dissolved in an aqueous solution of 10% HP-β-CD (0.5 mg/mL), and intravenously administered to rats (Sprague-Dawley (SD), male, 7-week-old, fasted, dose: 0.5 mg/kg). Blood was collected from the tail vein at each time of blood collection, and the plasma was collected by centrifugation. Quantitative analysis of each compound in plasma was performed using LC-MS/MS. Half-life in plasma (t1/2eff) was calculated from clearance (CL) and distribution volume (Vdss) calculated through noncompartmental analysis with Phoenix WinNonlin (Certara, L.P.), according to the equation described below. t1/2eff=LN(2)/(CL/Vdss)

The next data set deals with human CYP4A11 (Homo sapiens (Human), UniProt Q02928). In words: Inhibition test against 20-HETE producing enzyme CYP4A11 (luciferine derivative, luminescence). The class given is biochemical. The procedure, abridged:
(§5)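 E. coli membranes (100 μg/mL protein) expressing human enzyme, room temperature 60 min, luciferin-derivative luminescence; IC50 from % inhibition. CYP4F2: 50 mM KPO4 pH 7.4, 2.5 μM substrate, 1 mM NADPH. CYP4A11: 100 mM Tris-HCl pH 7.5, 60 μM substrate, NADP+/glucose 6-phosphate/G6PDH regenerating system, 3.3 mM MgCl2.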

In a further data set the target is human CYP4F2 (Homo sapiens (Human), UniProt P78329). In words: Inhibition test against 20-HETE producing enzyme CYP4F2 (luciferine derivative, luminescence). The format is biochemical. Put shortly: as §5
Chain of human CYP4F2 (P78329 5-520): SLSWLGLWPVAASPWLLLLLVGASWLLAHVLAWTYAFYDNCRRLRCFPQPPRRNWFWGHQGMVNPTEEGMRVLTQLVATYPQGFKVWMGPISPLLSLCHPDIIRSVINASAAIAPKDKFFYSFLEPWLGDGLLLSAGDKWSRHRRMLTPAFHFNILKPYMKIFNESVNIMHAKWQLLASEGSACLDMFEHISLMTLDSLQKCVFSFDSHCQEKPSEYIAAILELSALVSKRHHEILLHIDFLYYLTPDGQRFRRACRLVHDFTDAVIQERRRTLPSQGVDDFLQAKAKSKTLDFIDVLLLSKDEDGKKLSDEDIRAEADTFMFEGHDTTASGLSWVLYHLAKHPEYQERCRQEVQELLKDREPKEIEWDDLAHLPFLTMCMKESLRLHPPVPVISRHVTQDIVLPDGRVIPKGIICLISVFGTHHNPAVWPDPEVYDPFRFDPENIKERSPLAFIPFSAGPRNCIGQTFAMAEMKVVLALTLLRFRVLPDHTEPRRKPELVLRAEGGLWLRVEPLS
The mark [3] stands for this setting: human CYP4A11, luciferine derivative, luminescence.
Setting [4] is: human CYP4F2, luciferine derivative, luminescence.

Chain of human CYP4V2 (Q6ZWL3 whole entry): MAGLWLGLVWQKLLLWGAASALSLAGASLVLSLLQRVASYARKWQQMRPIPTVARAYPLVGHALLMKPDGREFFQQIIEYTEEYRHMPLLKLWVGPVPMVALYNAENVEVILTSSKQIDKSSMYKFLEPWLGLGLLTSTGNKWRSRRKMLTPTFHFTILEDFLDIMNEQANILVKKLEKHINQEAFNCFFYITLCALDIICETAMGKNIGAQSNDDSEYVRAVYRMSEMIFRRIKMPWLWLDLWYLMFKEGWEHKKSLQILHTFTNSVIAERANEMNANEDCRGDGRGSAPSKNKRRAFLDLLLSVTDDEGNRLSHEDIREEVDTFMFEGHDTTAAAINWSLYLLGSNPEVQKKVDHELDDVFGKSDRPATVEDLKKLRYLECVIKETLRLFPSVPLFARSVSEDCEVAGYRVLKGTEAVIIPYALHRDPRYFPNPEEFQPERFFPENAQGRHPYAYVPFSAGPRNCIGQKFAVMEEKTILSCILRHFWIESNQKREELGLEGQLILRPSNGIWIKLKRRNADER
Chain of human CYP4A11 (Q02928 5-519): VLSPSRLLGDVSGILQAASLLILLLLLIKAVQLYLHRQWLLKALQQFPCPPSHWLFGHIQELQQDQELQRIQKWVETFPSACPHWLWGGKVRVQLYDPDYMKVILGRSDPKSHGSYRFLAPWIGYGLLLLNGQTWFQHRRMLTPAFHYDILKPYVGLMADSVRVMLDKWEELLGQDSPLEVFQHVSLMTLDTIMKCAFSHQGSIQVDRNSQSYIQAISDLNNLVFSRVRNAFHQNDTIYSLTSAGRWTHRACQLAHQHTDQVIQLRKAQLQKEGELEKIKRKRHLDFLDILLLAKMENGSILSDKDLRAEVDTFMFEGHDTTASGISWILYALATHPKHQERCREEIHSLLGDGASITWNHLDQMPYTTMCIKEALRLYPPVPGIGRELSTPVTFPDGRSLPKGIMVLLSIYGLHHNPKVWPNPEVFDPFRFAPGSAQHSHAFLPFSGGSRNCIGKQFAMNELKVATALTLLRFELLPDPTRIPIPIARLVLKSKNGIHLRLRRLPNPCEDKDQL
Chain of human CYP4F22 (Q6NT55 whole entry): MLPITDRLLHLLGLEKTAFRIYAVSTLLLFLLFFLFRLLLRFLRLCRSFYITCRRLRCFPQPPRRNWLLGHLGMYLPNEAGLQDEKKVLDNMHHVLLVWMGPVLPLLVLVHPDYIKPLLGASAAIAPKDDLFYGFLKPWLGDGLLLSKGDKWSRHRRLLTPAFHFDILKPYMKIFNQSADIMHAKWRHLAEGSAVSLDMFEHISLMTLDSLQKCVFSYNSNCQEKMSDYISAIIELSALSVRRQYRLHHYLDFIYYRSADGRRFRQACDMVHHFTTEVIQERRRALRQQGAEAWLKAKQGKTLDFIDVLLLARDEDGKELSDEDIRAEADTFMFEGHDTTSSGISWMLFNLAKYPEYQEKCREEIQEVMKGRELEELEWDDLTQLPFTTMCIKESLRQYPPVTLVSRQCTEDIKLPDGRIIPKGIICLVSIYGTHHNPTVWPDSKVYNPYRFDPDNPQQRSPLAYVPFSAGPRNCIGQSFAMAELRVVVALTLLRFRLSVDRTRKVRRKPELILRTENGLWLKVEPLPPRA

Regarding `O=C(O)C1(CCCCCCCCOc2ccc(-c3ccn[nH]3)nc2)COC1` [Example 72-3], the IC50 (as a rule, the concentration that gives 50% inhibition) came out at 4 nM in data set [1]; 1500 nM against human CYP4V2; 3800 nM at human CYP4F22; 130 nM on human CYP4A11 (setting [3]); 43 nM on human CYP4F2 (setting [4]). The t1/2eff in data set [2] was 1.4 h.
Turning to `O=C(O)[C@H]1C[C@@H]1c1cccc(CCOc2ccc(-c3ccn[nH]3)nc2)c1F` [Example 74-4], the IC50 in data set [1] was found to be 4.4 nM; against human CYP4V2, 2300 nM; against human CYP4F22, 480 nM; against human CYP4A11 (setting [3]) it was 82 nM; at human CYP4F2 (setting [4]) it was 58 nM. The t1/2eff in data set [2] is 3.5 h.
With `O=C(O)C1(OCCCCCCCOc2ccc(-c3ccn[nH]3)nc2)CCC1` [Example 72-2], the IC50 is 4.7 nM in data set [1]; 510 nM at human CYP4V2; 2500 nM at human CYP4F22; 120 nM against human CYP4A11 (setting [3]); 97 nM against human CYP4F2 (setting [4]). The same compound returned a t1/2eff in data set [2] of 2.4 h.
In the case of `CC(C)(OCCCCCCCOc1ccc(-c2ccn[nH]2)nc1)C(=O)O` [Example 15-1, 2-Methyl-2-[7-[[6-(1H-pyrazol-5-yl)-3-pyridinyl]oxy]heptoxy]propanoic Acid], the “inhibitory activities against 20-HETE producing enzymes compared to compound A and compound B” value in data set [1] (comparison with compound A and compound B of WO03/022821, human kidney microsomes) is on record as “stronger inhibitory activities”. The IC50 in data set [1] was 18 nM; on human CYP4V2 it was 1000 nM; on human CYP4F22 it was 2900 nM; on human CYP4A11 (E. coli membrane fraction expressing human CYP4A11, 60 μM luciferine derivative, room temperature 60 minutes), 120 nM; against human CYP4F2 (E. coli membrane fraction expressing human CYP4F2, 2.5 μM luciferine derivative, room temperature 60 minutes) it was 220 nM. Also, the t1/2eff in data set [2] amounted to 2.4 h.
In the case of `O=C(O)C1CC1c1cccc(COc2ccc(-c3ccn[nH]3)nc2)c1F` (single isomer, unassigned) [Example 71-46], the IC50 in data set [1] came out at 12 nM; against human CYP4V2 it was 620 nM; on human CYP4F22 it was 1300 nM; against human CYP4A11 (setting [3]), 19 nM; against human CYP4F2 (setting [4]) it was 240 nM. The compound also showed a t1/2eff in data set [2] of 3.6 h.
Regarding `O=C(O)C1(OCCCCCCCOc2ccc(-c3ccn[nH]3)nc2)COC1` [Example 71-6], the IC50 came to 11 nM in data set [1]; 1200 nM at human CYP4V2; 370 nM against human CYP4F22; 230 nM against human CYP4A11 (setting [3]); 100 nM against human CYP4F2 (setting [4]).
On to `O=C(O)C1CC1c1ccc(CCOc2ccc(-c3ccn[nH]3)nc2)c(F)c1` (single isomer, unassigned) [Example 71-18], for which the concentration for half-maximal inhibition (IC50) in data set [1] is 6 nM; against human CYP4V2 it was 2100 nM; at human CYP4F22, 1900 nM; at human CYP4A11 (setting [3]) it was 110 nM; on human CYP4F2 (setting [4]), 83 nM.
Taken in the same sequence, the figures for `O=C(O)C1CC1c1cc(CCOc2ccc(-c3ccn[nH]3)nc2)ccc1F` (stereo not drawn) [Example 74-2] were 20 nM, 2300 nM, 280 nM, 53 nM and 130 nM.
In the case of `O=C(O)[C@@H]1C[C@@H]1c1ccc(CCOc2ccc(-c3ccn[nH]3)nc2)cc1` [Example 70-10-1], the IC50 in data set [1] came to 6.4 nM; against human CYP4V2 it was 3300 nM; against human CYP4F22 it was 2300 nM; at human CYP4A11 (setting [3]), 160 nM; at human CYP4F2 (setting [4]), 120 nM.
